In patent US20100022600A1, “METHODS AND COMPOSITIONS FOR TREATING CENTRAL NERVOUS SYSTEM TUMORS” (priority 2006, published 2010):

Tested on: C6 glioma cells
Test: Boyden chamber assay, C6 cell migration
Type: cell-based, rat
Method: C6 cell migration in the presence or absence of pio was assessed using a Boyden chamber (AP48, NeuroProbe, Gaithersburg, Md., USA) with an 8 μm polycarbonate PVPF-filter (Osmonics, Minnetonka, Minn., USA). Cells were suspended in DMEM containing 2.5% fetal calf serum and pio at 30 μM or vehicle (DMSO). C6 glioma cells were pretreated for 24 h in the presence or absence of 30 μM pio. Cells (5×10^3 in 50 μl pio/medium or vehicle/medium) were then plated in the wells of the upper compartment of the chamber (6 well/condition), and the wells of the lower compartment were filled with DMEM. Incubation was performed at 37° C. in 5% CO2 for 4 h. After incubation, cells on the upper surface of the filter, which had not migrated, were gently scraped off, and the filters were then fixed in methanol and subsequently stained with DAPI (1:500 in PBS; Sigma, St. Louis, Mo., USA). The number of cells which migrated to the lower surface of the filter, was counted using public domain software NIH Image 1.62 (Bethesda, Md., USA). Total number of migrating cells under pio treated and vehicle treated condition were compared statistically. Experiments were performed in duplicate.

`CCc1ccc(CCOc2ccc(CC3SC(=O)NC3=O)cc2)nc1` (centres unmarked) [pioglitazone, 5-[4-[2-(5-ethylpyridin-2-yl)ethoxyl]benzyl]thiazolidine-2,4-dione] was tested, and the “invasiveness of C6 cells (migrated cells)” value (pio 30 μM during the Boyden chamber incubation, 4 h) was “reduced the invasiveness of C6 cells significantly” and the “inhibition of invasiveness after pretreatment” value (pretreatment of C6 cells for 24 h with 30 μM pio) was “further increased inhibition”.
